# Experimental data taken from patent US11046709B2, “Fused 1,4-diazepines as BET bromodomain inhibitors” (THE REGENTS OF THE UNIVERSITY OF MICHIGAN, priority 2017, dated 2021).
# Read-outs that look alike come from different tables or passages of the source.
# Legend:
# MDA-MB-231 = assay: Cell growth inhibition, 4-day proliferation assay, MDA-MB-231; type: cell-based; conditions: Homo sapiens
# Experimental: (§1) The effect of representative Compounds of the Disclosure on cell viability was determined in a 4-day proliferation assay. Cells were maintained in the appropriate culture medium with 100/0 FBS at 37° C. and an atmosphere of 5% CO2. All the cell lines were used within three months of thawing fresh vials.
# (§2) In general, cells were seeded in 96-well flat bottom (Corning COSTAR, Corning, N.Y., cat #3595) or white opaque cell culture plates (BD Falcon, cat #353296) at a density of 3,000-10,000 cells/well in 75 μl of culture medium. Compounds were serially diluted in the appropriate medium, and 75 μl of the diluted compounds were added to the appropriate wells of the cell plate. After the addition of compounds, the cells were incubated at 37° C. in an atmosphere of 5% CO2 for 4 days. Cell viability was determined using the CellTiter-Glo® Luminescent Cell Viability Assay Kit (Promega, Madison, Wis.) for leukemia cells and WST (2-(2-methoxy-4-nitrophenyl)-3-(4-nitrophenyl)-5-(2,4-disulfophenyl)-2H-tetrazolium, monosodium salt) Cell Counting-8 Kit (Dojindo Molecular Technologies, Inc., Rockville, Md.) for adherent cells according to the manufacturers' instructions.
# (§3) For WST assay (adherent cells), WST-8 reagent was added to each well at a final concentration of 10% (v/v), and then the plates were incubated at 37° C. for 1-2 hours for color development. The absorbance was measured at 450 nm using a SPECTRAmax PLUS plate reader (Molecular Devices, Sunnyvale, Calif.). The readings were normalized to the DMSO-treated cells and the half maximal inhibitory concentration (IC50) was calculated by nonlinear regression (four parameters sigmoid fitted with variable slope, least squares fit, and no constraint) analysis using the GraphPad Prism 5 software (GraphPad Software, La Jolla, Calif.).
# (§4) For CellTiter-Glo assay (suspension cells), 100 μl of CellTiter-Glo® Reagent was added to each well, and then the plates were incubated at room temperature for 10-20 minutes. The luminescent signal was measured using a Tecan Infinite M1000 multimode microplate reader (Tecan, Morrisville, N.C.). The readings were normalized to the DMSO-treated cells and the IC50 was calculated by nonlinear regression (four parameters sigmoid fitted with variable slope, least squares fit, and no constraint) analysis using the GraphPad Prism 5 software. See US 2014/0256706.
# (§5) For a number of representative compounds in Table 5, their IC50 values in cell growth inhibition activity in the RS4;11 and MOLM-13 human leukemia cell lines and the MDA-MB-231 breast cancer cell line were evaluated using the WST-8 assay described in EXAMPLE 7, with the data shown in Table 7.
# MOLM-13 = assay: Cell growth inhibition, 4-day proliferation assay, MOLM-13; type: cell-based; conditions: Homo sapiens, MOLM-13, WST-8 assay, Table 7; read-out: Cell growth inhibition (IC50 (nM)) MOLM-13
# Experimental: as §1, §2, §3, §4, §5
# [1] = MDA-MB-231, WST-8 assay, Table 7, read-out: Cell growth inhibition (IC50 (nM)) MDA-MB-231
SMILES,IC50 (MDA-MB-231; [1]) [nM],"IC50 (MDA-MB-231; MDA-MB-231, read-out: Cell growth inhibition (IC50 (nM)) MDA-MB-231) [nM]",IC50 (MOLM-13) [nM]
"Cc1c(C#Cc2cnn(CCCC(=O)O)c2)sc2c1C(c1ccc(Cl)cc1)=N[C@@H](C)c1nnc(C)n1-2 [Compound 101, (S)-4-(4-((4-(4-chlorophenyl)-3,6,9-trimethyl-6H-thieno[3,2-f][1,2,4]triazolo[4,3-a][1,4]diazepin-2-yl)ethynyl)-1H-pyrazol-1-yl)butanoic acid]",1030 ± 700,,
"Cc1c(C#Cc2cnn(CCC(=O)O)c2)sc2c1C(c1ccc(Cl)cc1)=N[C@@H](C)c1nnc(C)n1-2 [Compound 102, (S)-3-(4-((4-(4-chlorophenyl)-3,6,9-trimethyl-6H-thieno[3,2-f][1,2,4]triazolo[4,3-a][1,4]diazepin-2-yl)ethynyl)-1H-pyrazol-1-yl)propanoic acid]",,3000 ± 300,
"Cc1c(C#Cc2cccnc2)sc2c1C(c1ccc(Cl)cc1)=N[C@@H](CC(C)C)c1nnc(C)n1-2 [Compound 106, (S)-4-(4-chlorophenyl)-6-isobutyl-3,9-dimethyl-2-(pyridin-3-ylethynyl)-6H-thieno[3,2-f][1,2,4]triazolo[4,3-a][1,4]diazepine]",670 ± 100,,393
"Cc1c(C#Cc2ccc(N)nc2)sc2c1C(c1ccc(Cl)cc1)=N[C@@H](CC(C)C)c1nnc(C)n1-2 [Compound 107, (S)-5-((4-(4-chlorophenyl)-6-isobutyl-3,9-dimethyl-6H-thieno[3,2-f][1,2,4]triazolo[4,3-a][1,4]diazepin-2-yl)ethynyl)pyridin-2-amine]",320 ± 90,,363
"Cc1c(C#Cc2cnn(C)c2)sc2c1C(c1ccc(Cl)cc1)=N[C@@H](CC(C)C)c1nnc(C)n1-2 [Compound 108, (S)-4-(4-chlorophenyl)-6-isobutyl-3,9-dimethyl-2-((1-methyl-1H-pyrazol-4-yl)ethynyl)-6H-thieno[3,2-f][1,2,4]triazolo[4,3-a][1,4]diazepine]",200 ± 30,,232
"Cc1c(C#Cc2ccccn2)sc2c1C(c1ccc(Cl)cc1)=N[C@@H](CC(=O)NC1CCOCC1)c1nnc(C)n1-2 [Compound 133, (S)-2-(4-(4-chlorophenyl)-3,9-dimethyl-2-(pyridin-2-ylethynyl)-6H-thieno[3,2-f][1,2,4]triazolo[4,3-a][1,4]diazepin-6-yl)-N-(tetrahydro-2H-pyran-4-yl)acetamide]",338,,8.4
"Cc1c(C#Cc2ccccn2)sc2c1C(c1ccc(Cl)cc1)=N[C@@H](CC(=O)N1CCC(C)(O)CC1)c1nnc(C)n1-2 [Compound 137, (S)-2-(4-(4-chlorophenyl)-3,9-dimethyl-2-(pyridin-2-ylethynyl)-6H-thieno[3,2-f][1,2,4]triazolo[4,3-a][1,4]diazepin-6-yl)-1-(4-hydroxy-4-methylpiperidin-1-yl)ethan-1-one]",> 10000,,43200
"Cc1c(C#Cc2ccccn2)sc2c1C(c1ccc(Cl)cc1)=N[C@@H](CC(=O)N1CC(C)(O)C1)c1nnc(C)n1-2 [Compound 138, (S)-2-(4-(4-chlorophenyl)-3,9-dimethyl-2-(pyridin-2-ylethynyl)-6H-thieno[3,2-f][1,2,4]triazolo[4,3-a][1,4]diazepin-6-yl)-1-(3-hydroxy-3-methylazetidin-1-yl)ethan-1-one]",211,,15 to 30
"Cc1nnc(C[C@@H]2N=C(c3ccc(Cl)cc3)c3c(sc(C#Cc4ncccc4F)c3C)-n3c(C)nnc32)o1 [Compound 139, (S)-2-((4-(4-chlorophenyl)-2-((3-fluoropyridin-2-yl)ethynyl)-3,9-dimethyl-6H-thieno[3,2-f][1,2,4]triazolo[4,3-a][1,4]diazepin-6-yl)methyl)-5-methyl-1,3,4-oxadiazole]",28.9,,4 to 10
"Cc1nnc(C[C@@H]2N=C(c3ccc(Cl)cc3)c3c(sc(C#Cc4ccc(F)cn4)c3C)-n3c(C)nnc32)o1 [Compound 140, (S)-2-((4-(4-chlorophenyl)-2-((5-fluoropyridin-2-yl)ethynyl)-3,9-dimethyl-6H-thieno[3,2-f][1,2,4]triazolo[4,3-a][1,4]diazepin-6-yl)methyl)-5-methyl-1,3,4-oxadiazole]",52.6,,11.3
"Cc1nnc(C[C@@H]2N=C(c3ccc(Cl)cc3)c3c(sc(C#Cc4cnn(C)c4)c3C)-n3c(C)nnc32)o1 [Compound 141, (S)-2-((4-(4-chlorophenyl)-3,9-dimethyl-2-((1-methyl-1H-pyrazol-4-yl)ethynyl)-6H-thieno[3,2-f][1,2,4]triazolo[4,3-a][1,4]diazepin-6-yl)methyl)-5-methyl-1,3,4-oxadiazole]",31.2,,1.7
"Cc1nnc(C[C@@H]2N=C(c3ccc(Cl)cc3)c3c(sc(C#CC4(O)COC4)c3C)-n3c(C)nnc32)o1 [Compound 142, (S)-3-((4-(4-chlorophenyl)-3,9-dimethyl-6-((5-methyl-1,3,4-oxadiazol-2-yl)methyl)-6H-thieno[3,2-f][1,2,4]triazolo[4,3-a][1,4]diazepin-2-yl)ethynyl)oxetan-3-ol]",785,,95.9
"Cc1nnc(C[C@@H]2N=C(c3ccc(Cl)cc3)c3c(sc(C#CC4CCCC4)c3C)-n3c(C)nnc32)o1 [Compound 146, (S)-2-((4-(4-chlorophenyl)-2-(cyclopentylethynyl)-3,9-dimethyl-6H-thieno[3,2-f][1,2,4]triazolo[4,3-a][1,4]diazepin-6-yl)methyl)-5-methyl-1,3,4-oxadiazole]",22.5,,17.4
"Cc1nnc(C[C@@H]2N=C(c3ccc(Cl)cc3)c3c(sc(C#CC(C)(C)C)c3C)-n3c(C)nnc32)o1 [Compound 147, (S)-2-((4-(4-chlorophenyl)-2-(3,3-dimethylbut-1-yn-1-yl)-3,9-dimethyl-6H-thieno[3,2-f][1,2,4]triazolo[4,3-a][1,4]diazepin-6-yl)methyl)-5-methyl-1,3,4-oxadiazole]",20.1,,7.4
"Cc1nnc(C[C@@H]2N=C(c3ccc(Cl)cc3)c3c(sc(C#CC(C)C)c3C)-n3c(C)nnc32)o1 [Compound 148, (S)-2-((4-(4-chlorophenyl)-3,9-dimethyl-2-(3-methylbut-1-yn-1-yl)-6H-thieno[3,2-f][1,2,4]triazolo[4,3-a][1,4]diazepin-6-yl)methyl)-5-methyl-1,3,4-oxadiazole]",7.7,,6
"Cc1c(C#Cc2cncn2C)sc2c1C(c1ccc(Cl)cc1)=N[C@@H](CC(=O)N1CCN(C)CC1)c1nnc(C)n1-2 [Compound 165, (S)-2-(4-(4-chlorophenyl)-3,9-dimethyl-2-((1-methyl-1H-imidazol-5-yl)ethynyl)-6H-thieno[3,2-f][1,2,4]triazolo[4,3-a][1,4]diazepin-6-yl)-1-(4-methylpiperazin-1-yl)ethan-1-one]",,,36.4
"Cc1c(C#Cc2ccccn2)sc2c1C(c1ccc(Cl)cc1)=N[C@@H](CC(=O)N1CC3(CNC3)C1)c1nnc(C)n1-2 [Compound 170, (S)-2-(4-(4-chlorophenyl)-3,9-dimethyl-2-(pyridin-2-ylethynyl)-6H-thieno[3,2-f][1,2,4]triazolo[4,3-a][1,4]diazepin-6-yl)-1-(2,6-diazaspiro[3.3]heptan-2-yl)ethan-1-one]",,,115
"Cc1c(C#Cc2ccccn2)sc2c1C(c1ccc(Cl)cc1)=N[C@@H](CC(=O)N1CCC(F)(F)C1)c1nnc(C)n1-2 [Compound 171, (S)-2-(4-(4-chlorophenyl)-3,9-dimethyl-2-(pyridin-2-ylethynyl)-6H-thieno[3,2-f][1,2,4]triazolo[4,3-a][1,4]diazepin-6-yl)-1-(3,3-difluoropyrrolidin-1-yl)ethan-1-one]",,,151
"Cc1c(C#Cc2ccccn2)sc2c1C(c1ccc(Cl)cc1)=N[C@@H](CC(=O)N1CCCC(F)(F)C1)c1nnc(C)n1-2 [Compound 172, (S)-2-(4-(4-chlorophenyl)-3,9-dimethyl-2-(pyridin-2-ylethynyl)-6H-thieno[3,2-f][1,2,4]triazolo[4,3-a][1,4]diazepin-6-yl)-1-(3,3-difluoropiperidin-1-yl)ethan-1-one]",,,71
"Cc1c(C#Cc2ccccn2)sc2c1C(c1ccc(Cl)cc1)=N[C@@H](CC(=O)N1CCC(F)CC1)c1nnc(C)n1-2 [Compound 173, (S)-2-(4-(4-chlorophenyl)-3,9-dimethyl-2-(pyridin-2-ylethynyl)-6H-thieno[3,2-f][1,2,4]triazolo[4,3-a][1,4]diazepin-6-yl)-1-(4-fluoropiperidin-1-yl)ethan-1-one]",9.67,,
